Each structure is given as a SMILES string. ± gives the standard deviation of the reports.

In the case of `*c1ccc(Oc2ccc(C(C)(C)c3ccc(Oc4ccc(-n5c(=O)c6cc7c(=O)n(*)c(=O)c7cc6c5=O)cc4)cc3)cc2)cc1` (repeat unit), the glass transition temperature came to 283.00 °C.
Compound `*c1ccc(-c2ccc(N3C(=O)c4cc5c(cc4C3=O)C(C(F)(F)F)(C(F)(F)F)c3cc4c(cc3O5)C(=O)N(*)C4=O)cc2OC(C)(F)F)c(OC(C)(F)F)c1` (repeat unit) showed a glass transition temperature of 363.00 °C.
In turn, `*c1ccc(P(=O)(c2ccccc2)c2ccc(-n3c(=O)c4cc5c(=O)n(*)c(=O)c5cc4c3=O)cc2)cc1` (repeat unit) displayed a glass transition temperature of 425.00 °C.
The compound `*c1cc(N2C(=O)c3ccc(-c4ccc5c(c4)C(=O)N(*)C5=O)cc3C2=O)ccc1OCC(F)(F)C(F)(F)C(F)(F)C(F)(F)C(F)(F)C(F)(F)C(F)(F)F` (repeat unit) gave a glass transition temperature of 250.00 °C.
In the case of `*c1cc(N2C(=O)c3ccc(-c4ccc5c(c4)C(=O)N(*)C5=O)cc3C2=O)ccc1OCC(F)(F)C(F)(F)C(F)(F)F` (repeat unit), the glass transition temperature amounted to 300.00 °C.
Same read-out and setting: then `*c1cc(N2C(=O)c3ccc(-c4ccc5c(c4)C(=O)N(*)C5=O)cc3C2=O)ccc1OCC(F)(F)C(F)(F)C(F)(F)C(F)(F)C(F)(F)C(F)(F)C(F)(F)C(F)(F)C(F)(F)C(F)(F)F` (repeat unit), with 230.00 °C; and `*c1ccc(-c2ccc(N3C(=O)c4ccc(-c5ccc6c(c5)C(=O)N(*)C6=O)cc4C3=O)cc2OC(F)(F)F)c(OC(F)(F)F)c1` (repeat unit), with 335.00 °C.
Same read-out and setting: then `*c1cccc(Oc2ccc(P(=O)(c3ccccc3)c3ccc(Oc4ccc(N5C(=O)c6ccc(-c7ccc8c(c7)C(=O)N(*)C8=O)cc6C5=O)cc4)cc3)cc2)c1` (repeat unit), with 241.00 °C; and `*c1ccc2c(c1)C(=O)N(c1cc(C(F)(F)F)cc(N3C(=O)c4ccc(C(*)(C(F)(F)F)C(F)(F)F)cc4C3=O)c1OC(c1c(F)c(F)c(F)c(F)c1F)c1c(F)c(F)c(F)c(F)c1F)C2=O` (repeat unit), with 321.70 °C; and `*c1ccc2c(c1)C(=O)N(c1cc(N3C(=O)c4ccc(S(*)(=O)=O)cc4C3=O)cc(C(F)(F)F)c1)C2=O` (repeat unit), with 310.00 °C.
`*c1ccc2c(c1)C(=O)N(c1cc(N3C(=O)c4ccc(*)cc4C3=O)cc(C(F)(F)F)c1)C2=O` (repeat unit) showed a glass transition temperature of 329.00 °C.
The compound `*c1ccc2c(c1)C(=O)N(c1ccc(-c3ccc(N4C(=O)c5ccc(C(*)(C(F)(F)F)C(F)(F)F)cc5C4=O)cc3C#N)c(C#N)c1)C2=O` (repeat unit) registered a glass transition temperature of 331.00 °C.
Turning to `*c1ccc2c(c1)C(=O)N(c1ccc(-c3ccc(N4C(=O)c5ccc(C(*)(C(F)(F)F)C(F)(F)F)cc5C4=O)cc3C)c(C)c1)C2=O` (repeat unit), the glass transition temperature is 325.00 °C.
With `*c1ccc2c(c1)C(=O)N(c1ccc(-c3ccc(N4C(=O)c5ccc(C(*)(C(F)(F)F)C(F)(F)F)cc5C4=O)cc3-c3cc(C(F)(F)F)cc(C(F)(F)F)c3)c(-c3cc(C(F)(F)F)cc(C(F)(F)F)c3)c1)C2=O` (repeat unit), the glass transition temperature was 263.00 °C.
On the same count and under the same terms, then `*c1ccc2c(c1)C(=O)N(c1ccc(Oc3c(F)c(F)c(-c4c(F)c(F)c(Oc5ccc(N6C(=O)c7ccc(C(*)(C(F)(F)F)C(F)(F)F)cc7C6=O)cc5)c(F)c4F)c(F)c3F)cc1)C2=O` (repeat unit), with 271.20 °C; and `*c1ccc2c(c1)C(=O)N(c1ccc(OCC(F)(F)C(F)(F)C(F)(F)C(F)(F)C(F)(F)C(F)(F)C(F)(F)F)c(N3C(=O)c4ccc(C(*)(C(F)(F)F)C(F)(F)F)cc4C3=O)c1)C2=O` (repeat unit), with 226.00 °C.
Turning to `*c1ccc2c(c1)C(=O)N(c1ccc(OCC(F)(F)C(F)(F)C(F)(F)C(F)(F)C(F)(F)C(F)(F)C(F)(F)C(F)(F)C(F)(F)C(F)(F)F)c(N3C(=O)c4ccc(C(*)(C(F)(F)F)C(F)(F)F)cc4C3=O)c1)C2=O` (repeat unit), the glass transition temperature was found to be 189.00 °C.
For `*C(=O)c1ccc2c(c1)C(=O)N(c1ccc(Oc3cccc(N4C(=O)c5ccc(*)cc5C4=O)c3)cc1)C2=O` (repeat unit), the glass transition temperature stood at 252.00 °C.
Still for that read-out and setting: the result for `*c1cccc2c1C(=O)N(c1ccc(C3(c4ccc(N5C(=O)c6cccc(*)c6C5=O)c(C)c4)c4ccccc4-c4ccccc43)cc1C)C2=O` (repeat unit) reads 313.00 ± 2.8 °C; that for `*C1=C(Cl)C(=O)N(c2ccc(Cc3ccc(N4C(=O)C(Cl)=C(Oc5ccc(C(C)(C)c6ccc(*)cc6)cc5)C4=O)cc3)cc2)C1=O` (repeat unit), 173.00 °C.
As to `*Sc1ccc2c(c1)C(=O)N(c1ccc(Oc3ccc(N4C(=O)c5cccc(*)c5C4=O)cc3)cc1)C2=O` (repeat unit), the glass transition temperature is 267.50 ± 8.4 °C.
`*Oc1cccc(C(C)(C)c2ccc(Oc3cccc4c3C(=O)N(c3ccc(Oc5ccc(N6C(=O)c7cccc(*)c7C6=O)cc5)cc3)C4=O)cc2)c1` (repeat unit): the glass transition temperature was 235.00 °C.
`*Oc1cccc(C(=O)c2ccc(Oc3cccc4c3C(=O)N(c3ccc(Oc5ccc(N6C(=O)c7cccc(*)c7C6=O)cc5)cc3)C4=O)cc2)c1` (repeat unit): the glass transition temperature came out at 252.00 °C.
`*Oc1cccc(C(C)(C)c2ccc(Oc3ccc4c(c3)C(=O)N(c3ccc(Oc5cccc(Oc6ccc(N7C(=O)c8ccc(*)cc8C7=O)cc6)c5)cc3)C4=O)cc2)c1` (repeat unit): the glass transition temperature was 178.00 °C.
As to `*Oc1cccc(C(C)(C)c2ccc(Oc3cccc4c3C(=O)N(c3ccc(Oc5cccc(Oc6ccc(N7C(=O)c8cccc(*)c8C7=O)cc6)c5)cc3)C4=O)cc2)c1` (repeat unit), the glass transition temperature was 202.00 °C.
Still for that read-out and setting: then `*Oc1cccc2c1C(=O)N(c1cccc(C(=O)c3cccc(N4C(=O)c5cccc(*)c5C4=O)c3)c1)C2=O` (repeat unit), with 234.00 °C.
Compound `*Oc1ccc2c(c1)C(=O)N(c1cccc(C(=O)c3cccc(N4C(=O)c5ccc(*)cc5C4=O)c3)c1)C2=O` (repeat unit) showed a glass transition temperature of 239.00 ± 4 °C.
In turn, `*c1ccc(Oc2ccc(Oc3ccc(-n4c(=O)c5ccc6c(=O)n(*)c(=O)c6c5c4=O)cc3)cc2)cc1` (repeat unit) yielded a glass transition temperature of 292.00 °C.

The source holds these as a separate data set.
In turn, `*c1ccc(N(c2ccc(-c3ccc4c(c3)C(CCCCCCCC)(CCCCCCCC)c3cc(*)ccc3-4)cc2)c2ccc(C(C)CC)cc2)cc1` (repeat unit) had a glass transition temperature of 140.00 °C.
Consider `*c1ccc2c(c1)C(CCCCCCCCCCCC)(CCCCCCCCCCCC)c1cc(*)ccc1-2` (repeat unit), for which the glass transition temperature came to 16.00 °C.
For `*c1ccc2c(c1)C(CCCCCCCC)(CCCCCCCC)c1cc(-c3sc(-c4ccc(-c5cc(CCCCCC)c(*)s5)c5nsnc45)cc3CCCCCC)ccc1-2` (repeat unit), the glass transition temperature was 79.00 °C.
For the compound `*c1ccc(-c2ccc(-c3cc4c5c(c(*)cc6c5c3C(=O)N(CC(CCCCCCCC)CCCCCCCCCC)C6=O)C(=O)N(CC(CCCCCCCC)CCCCCCCCCC)C4=O)s2)s1` (repeat unit), the glass transition temperature was found to be 74.00 °C.
With `*c1cc2c(OCC(CC)CCCC)c3sc(-c4sc(*)c5c(F)c(C(=O)OCC(CC)CCCC)sc45)cc3c(OCC(CC)CCCC)c2s1` (repeat unit), the glass transition temperature worked out at 40.00 °C.
The same measure, in the same setting: the result for `*C=Cc1cc(OC)c(C=Cc2cc(OC)c(*)cc2OC)cc1OCC(CC)CCCC` (repeat unit) reads 113.00 °C; that for `*c1ccc(-c2ccc(OCCCCCC)c(-c3cc(*)ccc3OCCCCCC)c2)cc1` (repeat unit), 117.00 °C; that for `*c1ccc(-c2ccc(OCCCCCCCC)c(-c3cc(*)ccc3OCCCCCCCC)c2)cc1` (repeat unit), 87.00 °C.
On the same count and under the same terms, the result for `*c1cc(CCCCCCCCCCCCCC)c(-c2sc(-c3cc4sc(*)cc4s3)cc2CCCCCCCCCCCCCC)s1` (repeat unit) reads 5.00 °C; that for `*c1ccc(-c2sc(-c3c(F)c(F)c(-c4cc(CC(CCCCCCCC)CCCCCCCCCC)c(-c5ccc(*)s5)s4)c4nsnc34)cc2CC(CCCCCCCC)CCCCCCCCCC)s1` (repeat unit), 28.00 °C.

The source holds these as a separate data set.
Consider `*c1nc(C(F)(F)F)nc(C(F)(OC(F)(F)C(F)(F)C(F)(F)C(F)(F)C(F)(F)C(F)(F)OC(*)(F)C(F)(F)F)C(F)(F)F)n1` (repeat unit) [Perfluoropolymer 1], for which the glass transition temperature is -13.6 ± 0.7 °C.
`*CC(*)(C)C(=O)OCC(CC)CC` (repeat unit) [Poly(2-ethylbutyl methacrylate) ] came in with a glass transition temperature of 10.4 ± 0.7 °C.
As for `*CC(*)C(=O)OC(C)CCCCC` (repeat unit) [Poly(2-heptyl acrylate) ], the glass transition temperature was -39 ± 1.4 °C.
Same read-out and setting: then `*CC(*)c1ccccc1CC` (repeat unit) [Poly(o-ethyl styrene) ], with 102 ± 1.4 °C; and `*CC(*)c1ccc(CO)cc1` (repeat unit) [Poly(p-hydroxymethyl styrene) ], with 139 ± 1.4 °C.
On the same count and under the same terms, the result for `*CC(*)OC(=O)CCC` (repeat unit) [Poly(vinyl butyrate) ] reads 2 ± 4.2 °C.
